Experimental data reported in patent US20230226106A1 (priority 2017, published 2023).

Tested on: Human umbilical cord endothelial cells
Format: cell-based
Text: The toxicity of each component is checked on Human cell lines (Human umbilical cord endothelial cells).

| SMILES | toxicity (Human umbilical cord endothelial cells) | proliferation of cells (at as low as 1 μM concentration) | human cell growth (treatment with as much as 250 μg/mL) |
| --- | --- | --- | --- |
| CCCCCCCCCCCCC/C=C/[C@@H](O)[C@@H](N)COP(=O)(O)O [Sphingosine-1-phosphate, Sphingosine-1-Phosphate] | not toxic | proliferative | – |
| O=C(O)c1cc(O)c(O)c(O)c1 [Gallic acid] | – | – | 100% |
